# Test results as given in US7425567B2, “Piperidine derivative compounds and drugs containing the compounds as the active ingredient” (Ono Pharmaceutical Co., Ltd., priority 2002, dated 2008).
# pIC50: −log10 of the molar value.
# Columns and labels:
# [1] = target: PDE4; assay: In vitro enzyme assay, PDE4 inhibitory activity; format: biochemical; settings: PDE4 enzyme solution from U937 cells (derived from human monocyte), 3H-cAMP substrate, room temperature, 30 minutes; read-out: IC50 (concentration of 50% inhibition of PDE4 activity)
# Procedure: U937 cells (derived from human monocyte) were cultured in PRMI 1640 medium containing 10% bovine fetal serum. The U937 cells were harvested and homogenized in 50 mM Tris-HCl buffer [pH 7.5, containing PMSF (1 mM), leupeptin (1 μg/ml) and pepstatin A (1 μg/ml)]. After centrifugation (at 15,000 rpm for 10 minutes), the supernatant was recovered and filtered through a 0.45 μm filter. The sample was applied to MonoQ (manufactured by Pharmacia, strong anion exchange resin) column and eluted by a density gradient of 0 to 0.8 M NaCl. Fractions from which the PDE activity was disappeared by 10 μM rolipram (a PDE4-selective inhibitor) were recovered and used as the enzyme solution for the measurement of PDE4 inhibitory activity.
# The enzyme activity was measured by the following method. […] To an alumina column (100 μl), was applied 50 μl of the supernatant, eluted with 80 μl of 0.005 N hydrochloric acid, and radioactivity of the eluate was measured.
# PDE4 inhibitory activity ratio of the compound of the present invention of formula (I) was calculated by the following equation: PDE4 activity inhibitory ratio (%)=(1−radioactivity in the presence of the compound of the present invention of formula (1)/radioactivity in the absence of the compound of the present invention of formula (I))×100 […]
# [2] = tested on: TNF-α production; assay: TNF-α production inhibitory effect in LPS-stimulated heparinized blood; format: cell-based; settings: blood of a healthy person, 6 hours incubation, human TNF-α ELISA
# Procedure: A heparinized blood sample collected from a healthy person was dispensed in 180 μl/well into a 96-well plate. A solution of compound 1 (final concentration of DMSO: 0.1% or less) was dispensed at 10 μl and the plate was allowed to stand at 37° C. for 30 minutes in a 5% CO2 incubator. The reaction was initiated by adding 10 μl of LPS solution. After 6 hours of incubation in a CO2 incubator (5% CO2, humidified), the plate was shaken and then centrifuged at 300×g for 5 minutes to recover 50 μl of the supernatant (blood plasma). The amount of TNF-α in the supernatant was measured using a human TNF-α ELISA kit (DIACLONE Cat. No. 850.090.096) in accordance with the method attached thereto.
compound,measurement,setting,value
"N#CC1(c2ccc(OC(F)F)c(OC3CCCC3)c2)CCN(CC(=O)O)CC1 [compound 1, 2-(4-(3-cyclopentyloxy-4-difluoromethoxyphenyl)-4-cyanopiperidin-1-yl)acetic acid monohydrate]",pIC50,[1],7.38
same,inhibitory activity against TNF-α production,[2],dose-dependent inhibitory activity
